Source: ChEMBL document CHEMBL1201862, “PubChem BioAssay data set” (2004)
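Results reflect a 48-hour exposure of cells in 96-well plates to compound at five concentrations. The concentration for 50% growth inhibition is given as GI50.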 Calls of active or inactive are those of the source. Cut-off read from the data, not from the text of the source: active = GI50 up to about 1.1 µM and inactive = higher.

How the values were obtained:
Test in all cases: NCI anticancer screen, dose series, 48 h
[1] = system: A549
[2] = system: HCC 2998
[3] = system: HOP-62
[4] = system: Hs-578T
[5] = system: MDA-MB-435
[6] = system: MOLT-4
[7] = system: OVCAR-3
[8] = system: OVCAR-5
[9] = system: OVCAR-8
[10] = system: PC-3
[11] = system: RPMI-8226
[12] = system: SF-295
[13] = system: SN12C
[14] = system: SNB-75
[15] = system: U-251
[16] = system: CAKI-1
[17] = system: NCI-H522
[18] = system: OVCAR-4
[19] = system: SK-MEL-2

Measured: GI50

Cc1ccc(C)n2c1nc1ccc3ccccc3c12
inactive: [1] > 100 µM | [2] > 100 µM | [3] > 100 µM | [4] 49.9 µM | [5] > 100 µM | [6] > 100 µM | [7] > 100 µM | [8] > 100 µM | [9] > 100 µM | [10] 67.9 µM | [11] > 100 µM | [12] > 100 µM | [13] > 100 µM | [14] 17.3 µM | [15] > 100 µM

O=C1CN(c2ccc(Cl)cc2)C(=O)CN1CCN1CC(=O)N(c2ccc(Cl)cc2)CC1=O
inactive: [1] > 100 µM | [16] > 100 µM | [2] > 100 µM | [3] > 100 µM | [4] > 100 µM | [5] > 100 µM | [6] > 100 µM | [17] > 100 µM | [7] > 100 µM | [18] > 100 µM | [8] > 100 µM | [9] > 100 µM | [10] > 100 µM | [11] > 100 µM | [12] > 100 µM | [13] > 100 µM | [14] > 100 µM | [15] > 100 µM

CCN(CC)CCn1nc(N)c2nc3ccccc3nc21
inactive: [1] > 100 µM | [16] 72.6 µM | [2] > 100 µM | [3] > 100 µM | [4] > 100 µM | [5] > 100 µM | [6] 63.7 µM | [17] 96.4 µM | [7] > 100 µM | [18] > 100 µM | [8] > 100 µM | [9] > 100 µM | [10] > 100 µM | [11] > 100 µM | [12] > 100 µM | [19] > 100 µM | [13] > 100 µM | [14] 39.9 µM | [15] > 100 µM

O=[N+]([O-])c1ccc(SN=S=NSc2cccc(SN=S=NSc3ccc([N+](=O)[O-])cc3)c2)cc1
inactive: [1] 46.5 µM | [16] 19 µM | [2] > 100 µM | [3] 48.8 µM | [4] 58.3 µM | [5] 25.2 µM | [6] 10.2 µM | [17] 15.8 µM | [7] 62.1 µM | [18] 36.7 µM | [8] 25.4 µM | [9] 22.4 µM | [10] 16.6 µM | [11] 27.7 µM | [12] 44.3 µM | [19] 17.1 µM | [13] 12.4 µM | [15] 16.4 µM

N#CC(C#N)=C(N)/C(C#N)=C/c1ccc2[nH]ccc2c1
inactive: [1] > 100 µM | [16] > 100 µM | [2] > 100 µM | [3] > 84.3 µM | [4] > 100 µM | [5] > 100 µM | [6] > 100 µM | [17] 97.3 µM | [7] > 100 µM | [18] > 100 µM | [8] > 100 µM | [9] > 100 µM | [10] > 100 µM | [11] > 100 µM | [12] > 100 µM | [19] > 100 µM | [13] > 100 µM | [14] 22.7 µM | [15] > 100 µM

c1cn[nH]c1 [PYRAZOLE]
inactive: [1] > 10 µM | [2] > 10 µM | [3] > 10 µM | [4] > 10 µM | [5] > 10 µM | [6] > 10 µM | [7] > 10 µM | [18] > 10 µM | [9] > 10 µM | [10] > 10 µM | [11] > 10 µM | [12] > 10 µM | [19] > 10 µM | [13] > 10 µM | [14] > 10 µM | [15] > 10 µM
